# According to patent US20040057908A1, “Oral compositions and use thereof” (priority 2003, published 2004):
# “And” between values parts separate entries of the source, which are not always exact repeats. Identical values can stand only once.
# How the values were obtained:
# [1] = molecular target: T1, GTF D (Streptococcus mutans serotype c, UniProt P49331); assay: GTF activity in solution, GTF D; type: biochemical; details: read-out: GTF D sol. % of Inhib.
# T1 construct: made in house; host or cells: Streptococcus milleri NH5 (culture supernatant)
# T1 sequence (P49331 whole entry): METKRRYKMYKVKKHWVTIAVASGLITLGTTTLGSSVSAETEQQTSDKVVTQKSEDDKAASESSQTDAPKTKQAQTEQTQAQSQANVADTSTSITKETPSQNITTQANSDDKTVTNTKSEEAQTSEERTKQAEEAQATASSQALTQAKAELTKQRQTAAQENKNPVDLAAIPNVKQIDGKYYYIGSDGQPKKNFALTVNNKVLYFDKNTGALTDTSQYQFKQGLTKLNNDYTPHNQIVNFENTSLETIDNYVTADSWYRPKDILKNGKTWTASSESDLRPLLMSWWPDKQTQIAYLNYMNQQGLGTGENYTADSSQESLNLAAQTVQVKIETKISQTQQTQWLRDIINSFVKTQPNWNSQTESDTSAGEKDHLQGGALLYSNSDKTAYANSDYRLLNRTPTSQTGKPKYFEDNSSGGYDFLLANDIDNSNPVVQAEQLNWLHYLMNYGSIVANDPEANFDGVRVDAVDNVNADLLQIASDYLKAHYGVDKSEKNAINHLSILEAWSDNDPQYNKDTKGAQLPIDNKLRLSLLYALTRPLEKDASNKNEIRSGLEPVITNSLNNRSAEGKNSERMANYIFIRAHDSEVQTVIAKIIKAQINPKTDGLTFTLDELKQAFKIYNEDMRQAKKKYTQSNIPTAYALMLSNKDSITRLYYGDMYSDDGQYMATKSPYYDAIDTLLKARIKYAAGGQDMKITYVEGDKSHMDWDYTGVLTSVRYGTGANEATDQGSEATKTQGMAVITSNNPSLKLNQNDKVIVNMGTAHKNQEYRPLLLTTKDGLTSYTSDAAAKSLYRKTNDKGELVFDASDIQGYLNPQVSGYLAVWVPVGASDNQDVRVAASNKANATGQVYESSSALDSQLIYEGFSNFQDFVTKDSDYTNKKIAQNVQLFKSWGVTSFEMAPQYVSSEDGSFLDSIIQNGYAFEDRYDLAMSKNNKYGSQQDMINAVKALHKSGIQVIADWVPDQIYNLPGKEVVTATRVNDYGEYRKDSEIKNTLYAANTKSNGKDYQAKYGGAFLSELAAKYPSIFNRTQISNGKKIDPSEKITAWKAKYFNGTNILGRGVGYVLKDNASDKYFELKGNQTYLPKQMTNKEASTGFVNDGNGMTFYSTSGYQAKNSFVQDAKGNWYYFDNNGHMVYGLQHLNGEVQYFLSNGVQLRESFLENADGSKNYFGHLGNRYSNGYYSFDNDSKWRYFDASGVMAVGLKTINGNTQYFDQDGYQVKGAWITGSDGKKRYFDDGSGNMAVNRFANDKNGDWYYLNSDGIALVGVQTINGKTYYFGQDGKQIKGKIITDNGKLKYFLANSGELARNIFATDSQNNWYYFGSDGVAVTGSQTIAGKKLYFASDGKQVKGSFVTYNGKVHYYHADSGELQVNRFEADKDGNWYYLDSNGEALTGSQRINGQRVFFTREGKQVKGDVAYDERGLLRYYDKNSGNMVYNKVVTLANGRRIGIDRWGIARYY
# Description: (§1) Glucosyltransferase activity was measured by the incorporation of [^14C-glucose] from labeled sucrose (NEN Research Products, Boston, Mass.) into glucans (Germaine et al., 1974; Venkitaraman et al., 1995). The GTF enzyme added to each sample for all assays was equivalent to the amount required to incorporate 1.0-1.5 μmol of glucose over the four hours reaction (1.0-1.5 units).
# (§2) For solution assays, purified GTF B, C, D and Ss were mixed with a two-fold dilution series of the test compounds (concentration ranging from 125 to 500 μM) and incubated with [^14C-glucose]-sucrose substrate (0.2 μCi/ml) (200.0 mmol/l sucrose, 40 μmol/l dextran 9000, 0.02% sodium azide in adsorption buffer—50 mM KCl, 1.0 mM KPO4, 1.0 mM CaCl2, 0.1 mM MgCl2−pH=6.5) to reach a final concentration of 100 mmol/l sucrose (200 μl final volume). For the control, the same reaction was carried out, where ethanol:DMSO (final concentration of 7.5% and 1.25%, v/v) or ethanol (final concentration of 5%, v/v) replaced the test agent solutions. The samples were incubated 37° C. with rocking for 4 h. After incubation, ice-cold ethanol (1.0 ml) was added and the samples were stored for 18 h, 4° C. for precipitation of glucans. Radiolabeled glucan was determined by scintillation counting (Germaine et al., 1974; Venkitaraman et al., 1995).
# [2] = system: T2, streptococcal GTFs; assay: GTF activity adsorbed onto sHA surface, all GTFs stated together; type: biochemical, Streptococcus mutans, S. sanguinis; details: 1.33 mM
# T2 construct: Streptococcus milleri KSB8, which harbors the gtfB gene from S. mutans GS-5 (for GTF B production)
# Description: as §1
# For surface assays, the GTFs were adsorbed to hydroxyapatite beads coated with clarified whole saliva (free of GTF activity), as detailed elsewhere (Koo et al., 2000c; Schilling and Bowen, 1988, Venkitaraman et al., 1995). The saliva-coated hydroxyapatite (sHA) beads were exposed to sufficient enzyme to saturate the surface as determined experimentally. Following the adsorption of the enzyme, the beads were washed 3 times with buffer to remove the loosely bound material and exposed to 300 μl of the two-fold dilution series of test compounds (or control) for 30 min. at the same concentrations described above. The beads were washed and exposed to 300 μl [^14C-glucose]-sucrose substrate (100.0 mmol/l sucrose, final concentration). The radiolabeled glucan formed was collected and quantified by scintillation counting (Germaine et al., 1974; Venkitaraman et al., 1995). All the solution and surface assays were done in quadruplicate in at least 3 different experiments. […]
# [3] = molecular target: T3, GTF C (Streptococcus mutans serotype c, UniProt P13470); assay: GTF activity in solution, GTF C; type: biochemical; details: read-out: GTF C sol. % of Inhib.
# T3 construct: The supernatant was carefully collected as the source of GTF C; made in house; host or cells: Streptococcus mutans WHB 410 (endogenous gtfC; urea/Triton extract of washed cells, hydroxyapatite chromatography)
# T3 sequence (P13470 35-1455): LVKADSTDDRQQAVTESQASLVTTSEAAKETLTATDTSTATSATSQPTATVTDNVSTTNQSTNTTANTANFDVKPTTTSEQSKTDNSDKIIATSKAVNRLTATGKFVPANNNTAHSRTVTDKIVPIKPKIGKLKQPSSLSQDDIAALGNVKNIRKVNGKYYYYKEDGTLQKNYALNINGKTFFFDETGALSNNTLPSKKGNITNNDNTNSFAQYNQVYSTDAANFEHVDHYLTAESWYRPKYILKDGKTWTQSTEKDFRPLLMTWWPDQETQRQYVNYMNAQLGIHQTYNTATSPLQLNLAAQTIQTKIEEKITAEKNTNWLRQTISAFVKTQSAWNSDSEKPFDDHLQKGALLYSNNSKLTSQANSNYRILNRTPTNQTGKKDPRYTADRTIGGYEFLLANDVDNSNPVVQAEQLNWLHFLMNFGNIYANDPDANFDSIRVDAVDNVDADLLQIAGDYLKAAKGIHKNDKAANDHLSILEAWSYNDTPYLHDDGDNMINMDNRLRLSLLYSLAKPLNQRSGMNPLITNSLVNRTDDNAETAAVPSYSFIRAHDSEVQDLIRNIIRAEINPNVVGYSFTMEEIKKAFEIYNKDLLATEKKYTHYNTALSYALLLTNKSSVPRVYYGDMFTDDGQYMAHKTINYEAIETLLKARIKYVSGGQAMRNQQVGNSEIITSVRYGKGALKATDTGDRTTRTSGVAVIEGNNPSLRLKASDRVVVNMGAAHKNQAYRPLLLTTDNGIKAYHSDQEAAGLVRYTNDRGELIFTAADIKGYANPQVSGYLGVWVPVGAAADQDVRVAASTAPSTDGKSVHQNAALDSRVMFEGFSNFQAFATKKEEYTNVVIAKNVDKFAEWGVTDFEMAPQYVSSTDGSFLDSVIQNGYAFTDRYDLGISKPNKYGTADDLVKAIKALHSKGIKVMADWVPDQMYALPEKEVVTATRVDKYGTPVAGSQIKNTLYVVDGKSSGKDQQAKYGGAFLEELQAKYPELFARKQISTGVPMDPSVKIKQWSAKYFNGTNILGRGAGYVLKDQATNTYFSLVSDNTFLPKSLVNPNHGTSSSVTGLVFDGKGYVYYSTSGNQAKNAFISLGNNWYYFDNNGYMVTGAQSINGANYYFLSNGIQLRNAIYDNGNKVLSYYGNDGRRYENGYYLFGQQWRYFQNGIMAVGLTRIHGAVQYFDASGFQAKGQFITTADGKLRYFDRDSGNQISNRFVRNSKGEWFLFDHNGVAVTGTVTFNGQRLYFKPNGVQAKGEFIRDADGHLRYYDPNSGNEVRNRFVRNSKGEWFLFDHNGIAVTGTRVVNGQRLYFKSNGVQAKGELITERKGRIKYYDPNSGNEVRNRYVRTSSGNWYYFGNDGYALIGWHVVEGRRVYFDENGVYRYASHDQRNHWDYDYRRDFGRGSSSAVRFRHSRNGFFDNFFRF
# Description: as §1, §2
# [4] = molecular target: T3, GTF C; assay: GTF activity adsorbed onto sHA surface, GTF C; type: biochemical
# Description: as §1
# (§3) For surface assays, the GTFs were adsorbed to hydroxyapatite beads coated with clarified whole saliva (free of GTF activity), as detailed elsewhere (Koo et al., 2000c; Schilling and Bowen, 1988, Venkitaraman et al., 1995). The saliva-coated hydroxyapatite (sHA) beads were exposed to sufficient enzyme to saturate the surface as determined experimentally. Following the adsorption of the enzyme, the beads were washed 3 times with buffer to remove the loosely bound material and exposed to 300 μl of the two-fold dilution series of test compounds (or control) for 30 min. at the same concentrations described above. The beads were washed and exposed to 300 μl [^14C-glucose]-sucrose substrate (100.0 mmol/l sucrose, final concentration). The radiolabeled glucan formed was collected and quantified by scintillation counting (Germaine et al., 1974; Venkitaraman et al., 1995). All the solution and surface assays were done in quadruplicate in at least 3 different experiments.
# [5] = molecular target: T1, GTF D; assay: GTF activity adsorbed onto sHA surface, GTF D; type: biochemical
# Description: as §1, §3
# [6] = molecular target: T4, GTF B (Streptococcus mutans serotype c, UniProt P08987); assay: GTF activity in solution, GTF B; type: biochemical; details: read-out: GTF B sol. % of Inhib.
# T4 construct: made in house; host or cells: Streptococcus milleri KSB8 (culture supernatant)
# T4 sequence (P08987 35-1476): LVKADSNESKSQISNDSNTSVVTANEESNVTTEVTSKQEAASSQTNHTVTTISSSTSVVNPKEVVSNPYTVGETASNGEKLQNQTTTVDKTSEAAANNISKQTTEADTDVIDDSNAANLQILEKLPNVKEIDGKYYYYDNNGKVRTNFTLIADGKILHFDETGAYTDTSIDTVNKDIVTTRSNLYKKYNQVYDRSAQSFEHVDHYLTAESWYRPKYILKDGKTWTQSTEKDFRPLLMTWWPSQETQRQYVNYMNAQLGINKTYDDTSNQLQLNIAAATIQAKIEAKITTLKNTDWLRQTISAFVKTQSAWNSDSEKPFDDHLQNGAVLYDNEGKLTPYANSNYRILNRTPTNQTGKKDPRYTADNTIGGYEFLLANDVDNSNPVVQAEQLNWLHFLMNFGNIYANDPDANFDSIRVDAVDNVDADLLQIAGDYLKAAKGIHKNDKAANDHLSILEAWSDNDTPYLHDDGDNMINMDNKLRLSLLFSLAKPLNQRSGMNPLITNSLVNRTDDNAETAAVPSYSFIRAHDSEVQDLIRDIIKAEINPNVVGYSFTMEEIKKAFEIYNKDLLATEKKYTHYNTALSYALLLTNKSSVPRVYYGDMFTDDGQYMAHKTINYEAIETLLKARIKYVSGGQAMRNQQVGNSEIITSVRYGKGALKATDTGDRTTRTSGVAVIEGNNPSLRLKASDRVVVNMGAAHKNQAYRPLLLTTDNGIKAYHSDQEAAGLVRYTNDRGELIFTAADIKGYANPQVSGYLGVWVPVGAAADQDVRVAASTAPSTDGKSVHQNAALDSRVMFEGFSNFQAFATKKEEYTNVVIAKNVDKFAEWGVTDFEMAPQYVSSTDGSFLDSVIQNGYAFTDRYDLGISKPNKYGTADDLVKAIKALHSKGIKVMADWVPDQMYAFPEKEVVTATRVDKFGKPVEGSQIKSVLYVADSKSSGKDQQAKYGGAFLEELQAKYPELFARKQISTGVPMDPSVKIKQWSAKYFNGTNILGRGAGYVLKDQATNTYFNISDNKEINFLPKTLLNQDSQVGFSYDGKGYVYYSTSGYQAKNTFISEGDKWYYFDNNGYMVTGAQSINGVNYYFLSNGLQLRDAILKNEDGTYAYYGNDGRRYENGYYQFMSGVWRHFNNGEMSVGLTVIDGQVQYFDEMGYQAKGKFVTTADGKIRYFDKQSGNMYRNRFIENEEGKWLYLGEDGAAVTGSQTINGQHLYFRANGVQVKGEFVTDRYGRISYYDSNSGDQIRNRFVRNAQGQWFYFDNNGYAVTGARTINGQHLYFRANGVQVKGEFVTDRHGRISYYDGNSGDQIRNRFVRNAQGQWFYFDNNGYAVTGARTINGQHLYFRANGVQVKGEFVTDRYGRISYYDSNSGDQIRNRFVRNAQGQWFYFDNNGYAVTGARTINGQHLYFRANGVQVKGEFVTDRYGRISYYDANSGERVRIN
# Description: as §1, §2
# [7] = read-out: GTF C surf. % of Inhib.
# [8] = read-out: GTF D surf. % of Inhib.
smiles,measurement,setting,value
O=c1cc(-c2ccc(O)cc2)oc2cc(O)cc(O)c12 [Apigenin],inhibition at 125 µM,[1],70.8%
same,inhibition at 250 µM,[1],90.2%
same,inhibition at 500 µM,[1],95%
same,inhibition of GTFs on a surface,[2],60-70%
same,inhibition at 125 µM,[3],77.5%
same,inhibition at 250 µM,[3],87.5%
same,inhibition at 500 µM,[3],90.5%
same,IC50,"[4]; IC50 for surface-adsorbed GTF C, surface-adsorbed",458 µM and 451 µM
same,inhibition at 125 µM,[4]; [7],30%
same,inhibition at 250 µM,[4]; [7],42.1%
same,inhibition at 500 µM,[4]; [7],60.5%
same,IC50,[5],> 1000 µM
same,inhibition at 125 µM,[5]; [8],17%
same,inhibition at 250 µM,[5]; [8],25.5%
same,inhibition at 500 µM,[5]; [8],33%
same,inhibition at 125 µM,[6],78.3%
same,inhibition at 250 µM,[6],92.8%
same,inhibition at 500 µM,[6],94.3%
